# Experimental data published in patent US8710062B2, “Piperazinedione compounds” (Taipei Medical University, priority 2011, dated 2014).
# Counter-ions that a name gives are not always drawn.
# System: not given
# Conditions: not given
row,melting point,Structure (SMILES)
1,228 to 230 °C,"O=c1[nH]/c(=C\c2ccc(OCc3cccnc3)cn2)c(=O)[nH]/c1=C\c1ccccc1 (as salt: sulfonic acid salt) [Compound 3, 3-benzylidene-6-((5-(pyridin-3-ylmethoxy)pyridin-2-yl)methylene)piperazine-2,5-dione methanesulfonic acid salt]"
2,266 to 267 °C,"O=c1[nH]/c(=C\c2ccc(OCc3ccccn3)cn2)c(=O)[nH]/c1=C\c1ccccc1 (as salt: sulfonic acid salt) [Compound 4, 3-benzylidene-6-((5-(pyridin-2-ylmethoxy)pyridin-2-yl)methylene)piperazine-2,5-dione methanesulfonic acid salt]"
3,280 °C,"NC(C(=O)Oc1ccc(/C=c2\[nH]c(=O)/c(=C/c3ccccc3)[nH]c2=O)nc1)c1ccccc1 (stereo not shown) (as salt: trifluoroacetate) [Compound 9, 2-(6-((Z)—((Z)-5-benzylidene-3,6-dioxopiperazin-2-ylidene)methyl)py-ridin-3-yloxy)-2-oxo-1-phenylethanaminium 2,2,2-trifluoroacetate]"
4,285 to 286 °C,"NC(Cc1ccccc1)C(=O)Oc1ccc(/C=c2\[nH]c(=O)/c(=C/c3ccccc3)[nH]c2=O)nc1 (stereo not shown) (as salt: trifluoroacetate) [Compound 11, 1-(6-((Z)—((Z)-5-benzylidene-3,6-dioxopiperazin-2-ylidene)methyl)-pyridin-3-yloxy)-1-oxo-3-phenylpropan-2-aminium 2,2,2-trifluoroacetate]"
5,312 to 314 °C,"NC(Cc1ccc(O)cc1)C(=O)Oc1ccc(/C=c2\[nH]c(=O)/c(=C/c3ccccc3)[nH]c2=O)nc1 (stereo not shown) (as salt: trifluoroacetate) [Compound 12, 1-(6-((Z)—((Z)-5-benzylidene-3,6-dioxopiperazin-2-ylidene)methyl)pyridin-3-yloxy)-3-(4-hydroxyphenyl)-1-oxopropan-2-aminium 2,2,2-trifluoroacetate]"
6,234 to 235 °C,"CN1CCN(C(=O)Oc2ccc(/C=c3\[nH]c(=O)/c(=C/c4ccccc4)[nH]c3=O)nc2)CC1 [Compound 6, 6-((Z)—((Z)-5-benzylidene-3,6-dioxopiperazin-2-ylidene)methyl)pyridin-3-yl-4-methylpiperazine-1-carboxylate]"
7,284 °C (dec.),"O=c1[nH]/c(=C\c2ccc(OCc3ccncc3)cn2)c(=O)n(Cc2ccncc2)/c1=C\c1ccccc1 [Compound 14, (3Z,6Z)-6-benzylidene-3-((5-(pyridin-4-ylmethoxy)pyridin-2-yl)meth-ylene)-1-(pyridin-4-ylmethyl)piperazine-2,5-dione]"
8,286 °C (dec.),"CN(C)CCCOc1cccc(/C=c2\[nH]c(=O)/c(=C/c3ccc(OCc4ccccc4)cn3)[nH]c2=O)c1 [Compound 17, 3-((5-(benzyloxy)pyridin-2-yl)methylene)-6-(3-(3-(dimethylamino)propoxy)benzylidene)piperazine-2,5-dione]"
9,326 °C (dec.),"O=c1[nH]/c(=C\c2ccc(OCCO)cn2)c(=O)n(CCO)/c1=C\c1ccccc1 [Compound 18, 6-benzylidene-3-((5-(2-hydroxyethoxy)pyridin-2-yl)methylene)-1-(2-hydroxyethyl)piperazine-2,5-dione]"
10,262 to 263 °C,"CC(=O)N1CC(=O)N/C(=C\c2ccc3ccccc3n2)C1=O [Compound 19, 1-acetyl-3-(quinolin-2-ylmethylene)piperazine-2,5-dione]"
11,374 to 375 °C,"O=c1[nH]/c(=C\c2ccc3ccccc3n2)c(=O)[nH]/c1=C\c1ccc2ccccc2n1 [Compound 20, 3,6-bis(quinolin-2-ylmethylene)piperazine-2,5-dione]"
12,305 to 306 °C,"O=c1[nH]/c(=C\c2ccc3ccccc3n2)c(=O)[nH]/c1=C\c1cccnc1 [Compound 21, 3-(pyridin-3-ylmethylene)-6-(quinolin-2-ylmethylene)piperazine-2,5-dione]"
13,319 to 320 °C,"O=c1[nH]/c(=C\c2ccc3ccccc3n2)c(=O)[nH]/c1=C\c1ccc(F)cc1 [Compound 22, 3-(4-fluorobenzylidene)-6-(quinolin-2-ylmethylene)piperazine-2,5-dione]"
14,348 to 349 °C,"O=c1[nH]/c(=C\c2ccc3ccccc3n2)c(=O)[nH]/c1=C\c1ccc(Cl)cc1 [Compound 23, 3-(4-chlorobenzylidene)-6-(quinolin-2-ylmethylene)piperazine-2,5-dione]"
15,288 to 289 °C,"O=c1[nH]/c(=C\c2cccs2)c(=O)[nH]/c1=C\c1ccc2ccccc2n1 [Compound 24, 3-(quinolin-2-ylmethylene)-6-(thiophen-2-ylmethylene)piperazine-2,5-dione]"
16,374 to 375 °C,"O=c1[nH]/c(=C\c2ccnc3ccccc23)c(=O)[nH]/c1=C\c1ccnc2ccccc12 [Compound 26, 3,6-bis(quinolin-4-ylmethylene)piperazine-2,5-dione]"
17,261 to 262 °C,"CC(=O)N1CC(=O)N/C(=C\c2cnc3ccccc3c2)C1=O [Compound 27, 1-acetyl-3-(quinolin-3-ylmethylene)piperazine-2,5-dione]"

row,Structure (SMILES),melting point
1,"CC(C)(C)OC(=O)NC(Cc1ccccc1)C(=O)Oc1ccc(/C=c2\[nH]c(=O)/c(=C/c3ccccc3)[nH]c2=O)nc1 (stereo not shown) [Compound 10, 6-((Z)—((Z)-5-benzylidene-3,6-dioxopiperazin-2-ylidene)methyl)pyridin-3-yl 2-(tert-butoxycarbonylamino)-3-phenylpropanoate]",188 °C
2,"CC(C)(C)OC(=O)NC(Cc1ccc(OC(C)(C)C)cc1)C(=O)Oc1ccc(/C=c2\[nH]c(=O)/c(=C/c3ccccc3)[nH]c2=O)nc1 (stereo not shown) [Compound 13, 6-((Z)—((Z)-5-benzylidene-3,6-dioxopiperazin-2-ylidene)methyl)pyridin-3-yl-2-(tert-butoxycarbonylamino)-3-(4-tert-butoxyphenyl)propanoate]",210 to 212 °C

# System: 60 Human Cancer Cell Lines (NCI-60)
# Conditions: data obtained from the NCI/DTP database (asterisk); cited from earlier work
row,Structure (SMILES),pIC50
1,Nc1nc2[nH]cc(CCc3ccc(C(=O)N[C@@H](CCC(=O)O)C(=O)O)cc3)c2c(=O)[nH]1 [Alimta],4.97
2,"O=c1[nH]cc(F)c(=O)[nH]1 [Compound 5-FU, 5-FU]",4.76
3,Nc1ccn([C@@H]2O[C@H](CO)[C@@H](O)C2(F)F)c(=O)n1 [Gemcitabine],6.82
4,COc1cc2ncnc(Nc3ccc(F)c(Cl)c3)c2cc1OCCCN1CCOCC1 [Irressa],5.49
5,CN(Cc1cnc2nc(N)nc(N)c2n1)c1ccc(C(=O)N[C@@H](CCC(=O)O)C(=O)O)cc1 [MTX],6.95
6,CNC(=O)c1cc(Oc2ccc(NC(=O)Nc3ccc(Cl)c(C(F)(F)F)c3)cc2)ccn1 [Mexavar],5.73
7,CCN(CC)CCNC(=O)c1c(C)[nH]c(/C=C2\C(=O)Nc3ccc(F)cc32)c1C [Sutent],5.71
8,C#Cc1cccc(Nc2ncnc3cc(OCCOC)c(OCCOC)cc23)c1 [Tarceva],5.26
9,CC(=O)O[C@@]12CO[C@@H]1C[C@H](O)[C@@]1(C)C(=O)[C@H](O)C3=C(C)[C@@H](OC(=O)[C@H](O)[C@@H](NC(=O)OC(C)(C)C)c4ccccc4)C[C@@](O)([C@@H](OC(=O)c4ccccc4)[C@H]21)C3(C)C [docetxel],7.66
10,O=C1[O][Pt]2([NH][C@@H]3CCCC[C@H]3[NH]2)[O]C1=O [eloxatin],5.65
11,CCc1c2c(nc3ccc(OC(=O)N4CCC(N5CCCCC5)CC4)cc13)-c1cc3c(c(=O)n1C2)COC(=O)[C@]3(O)CC [irinotecan],4.85
12,CC(=O)O[C@H]1C(=O)[C@@]2(C)[C@H]([C@H](OC(=O)c3ccccc3)[C@]3(O)C[C@H](OC(=O)[C@H](O)[C@@H](NC(=O)c4ccccc4)c4ccccc4)C(C)=C1C3(C)C)[C@]1(OC(C)=O)CO[C@@H]1C[C@@H]2O [taxol],7.84
